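Interpolation was linear, between the two tested concentrations surrounding the appropriate level; five concentrations were tested over 48 hours in 96-well plates. GI50 marks 50% less growth.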 Activity calls are given as the source filed them. No stated cut-off is given here; in the data, active = GI50 up to about 1.1 µM and inactive = higher.
Key:
Assay in all cases: NCI anticancer screen, dose series, 48 h
[1] = system: 786-0
[2] = system: A549
[3] = system: ACHN
[4] = system: CAKI-1
[5] = system: CCRF-CEM
[6] = system: HCC 2998
[7] = system: HL-60
[8] = system: M14
[9] = system: MDA-MB-435
[10] = system: MOLT-4
[11] = system: NCI-H23
[12] = system: NCI-H522
[13] = system: OVCAR-3
[14] = system: OVCAR-5
[15] = system: OVCAR-8
[16] = system: SNB-19
[17] = system: SNB-75
[18] = system: U-251
[19] = system: UACC-257
[20] = system: UACC-62

Measured: GI50

COC(=O)c1oc([N+](=O)[O-])c(Cl)c1Cl
inactive: [1] 4.14 µM | [2] 8.51 µM | [3] 8.91 µM | [4] 2.44 µM | [5] 2.21 µM | [6] 20 µM | [7] 1.34 µM | [8] 7.28 µM | [9] 7.8 µM | [10] 2.19 µM | [11] 8.73 µM | [12] 1.7 µM | [13] 6.1 µM | [14] 8.13 µM | [15] 10.6 µM | [16] 18.7 µM | [17] 7.78 µM | [18] 8.11 µM | [19] 7.89 µM | [20] 8.47 µM

SCc1ccc(-c2ccc(CS)cc2)cc1
inactive: [1] 23.2 µM | [2] 20.5 µM | [3] 18.7 µM | [4] 4.42 µM | [5] 1.43 µM | [6] 15.6 µM | [7] 3.25 µM | [8] 14.3 µM | [9] 5.74 µM | [10] 2.14 µM | [11] 14.4 µM | [12] 17.8 µM | [13] 16.4 µM | [14] 12.3 µM | [15] 21.3 µM | [16] 18.3 µM | [17] 10.7 µM | [18] 15.1 µM | [19] 21.1 µM | [20] 14.9 µM

NC(=O)c1nnc2ccc(F)cc2c1N
inactive: [1] > 100 µM | [2] > 100 µM | [3] 88.9 µM | [4] > 100 µM | [5] > 100 µM | [6] > 100 µM | [7] > 100 µM | [8] > 100 µM | [9] > 100 µM | [10] > 100 µM | [11] > 100 µM | [12] 94.6 µM | [13] > 100 µM | [14] 70 µM | [15] > 100 µM | [16] > 100 µM | [17] > 100 µM | [18] > 100 µM | [19] > 100 µM | [20] > 100 µM

[N-]=[N+]=Nc1c([N+](=O)[O-])c(=O)n2c3c(cccc13)CCC2
inactive: [1] 17.1 µM | [2] 35.9 µM | [3] 17.8 µM | [4] 13.2 µM | [5] 1.97 µM | [6] 19.1 µM | [7] 2.2 µM | [8] 10.8 µM | [9] 17.3 µM | [10] 2.48 µM | [11] 16.1 µM | [12] 2.08 µM | [13] 17 µM | [14] 16.4 µM | [15] 17.3 µM | [16] > 67.8 µM | [17] 19.4 µM | [18] 17.5 µM | [19] 8.15 µM | [20] 14 µM

C/C(=C1/N=C(c2ccccc2)OC1=O)c1cccs1
inactive: [1] 76 µM | [2] 64.7 µM | [3] > 100 µM | [4] > 100 µM | [5] > 100 µM | [6] > 100 µM | [7] > 100 µM | [8] > 100 µM | [9] > 100 µM | [10] > 100 µM | [11] > 100 µM | [12] 59.8 µM | [13] > 100 µM | [14] > 100 µM | [15] 68.9 µM | [16] > 100 µM | [17] 76.4 µM | [18] > 100 µM | [19] > 100 µM | [20] > 100 µM

O=C(NCCCCCCNC(=O)n1cc(F)c(=O)[nH]c1=O)NCCCOCCOCCOCCOCCOCCOCCOCCOCCOCCOCCOCCOCCOCCOCCOCCOCCOCCOCCOCCOCCOCCCNC(=O)C(O)C(O)C(OC1OC(CO)C(O)C(O)C1O)C(O)CO (stereo not given)
inactive: [1] 17.8 µM | [2] 7.33 µM | [3] 10.3 µM | [4] 70 µM | [5] > 83.8 µM | [6] 1.71 µM | [7] 43.7 µM | [8] 67.5 µM | [9] 19.3 µM | [10] 37 µM | [11] 22.5 µM | [12] 87.9 µM | [13] 37.1 µM | [14] > 54 µM | [15] 43.4 µM | [16] 88.3 µM | [17] 16.4 µM | [18] > 89.7 µM | [19] 59.4 µM | [20] 27.9 µM

Cc1ccc(-c2c(C#N)c(S)n(NS(=O)(=O)c3ccccc3)c(=O)c2C#N)cc1
inactive: [1] 29.6 µM | [2] 39.7 µM | [3] 28.1 µM | [4] 31.9 µM | [5] 9.1 µM | [6] 47 µM | [7] 16.7 µM | [8] 29.9 µM | [9] 23 µM | [10] 15.9 µM | [11] 37.8 µM | [12] 19.5 µM | [13] 49 µM | [14] 65.9 µM | [15] 21.2 µM | [16] 31.5 µM | [17] 42.2 µM | [18] 24.8 µM | [19] 61 µM | [20] 23.9 µM

CC1=C[C@H](C[C@]2(C)c3c(c4c(C)cccc4oc3=O)O[C@@H]2C)OC1=O
inactive: [1] 22.8 µM | [2] > 100 µM | [3] > 100 µM | [4] > 100 µM | [5] 19.3 µM | [6] > 100 µM | [7] 22.5 µM | [8] 66.1 µM | [9] 41.7 µM | [10] 21.1 µM | [11] 65.5 µM | [12] 22.6 µM | [13] 37 µM | [14] > 100 µM | [15] 68.1 µM | [16] > 100 µM | [17] > 100 µM | [18] > 100 µM | [19] > 100 µM | [20] 73.1 µM

C[N+](C)([O-])CCCNc1ccnc2cccc([N+](=O)[O-])c12
inactive: [1] > 100 µM | [2] 47.4 µM | [3] 33.1 µM | [4] 44.1 µM | [5] 31.6 µM | [6] 27.3 µM | [7] 20.2 µM | [8] 37.7 µM | [9] 46.2 µM | [10] 20.2 µM | [11] 34.6 µM | [12] 14.2 µM | [13] 20.7 µM | [14] > 100 µM | [15] 81.3 µM | [16] > 100 µM | [17] 39.2 µM | [18] 34.8 µM | [19] 45.8 µM | [20] 31.3 µM

O=C(C(=O)N1CCc2ccccc21)c1c[nH]c2ccccc12
inactive: [1] > 10 µM | [2] > 10 µM | [3] > 10 µM | [4] > 10 µM | [5] > 10 µM | [6] > 10 µM | [7] > 10 µM | [8] > 10 µM | [9] > 10 µM | [10] > 10 µM | [11] > 10 µM | [12] > 10 µM | [13] > 10 µM | [14] > 10 µM | [15] > 10 µM | [16] > 10 µM | [17] > 10 µM | [18] > 10 µM | [19] > 10 µM | [20] > 10 µM

Reference: ChEMBL document CHEMBL1201862, “PubChem BioAssay data set” (2004)
